Laboratory results published in paper PMC12382740, “In Vitro and In Vivo Characterization of Novel Cathelicidin-Based Peptides with Antimicrobial Activity Against Pseudomonas aeruginosa” (Antibiotics, 2025).
Square brackets hold non-standard residues; d marks the D form. Peptide text beside a SMILES is read from it.

Legend:
P. aeruginosa R2 = assay: Time-kill kinetic assay; format: cell-based, Pseudomonas aeruginosa
Experimental: (§1) Timepoints to withdraw aliquots of liquid cultures for each peptide, concentration, and strain were established at the following: 0, 2, 4, 8, and 24 h after inoculation. McFarland 0.5 solutions (~1.5 × 10^8 CFU/mL) were prepared from single-picked colonies grown O/N at 37 °C in Columbia Agar plates. Thirteen mL Falcon tubes were used to prepare solutions containing 5 mL of total volume by adding the following: 1 mL of peptide solution at 5 times chosen assay concentration to test, 3.75 mL AST, and 0.25 mL of a 1:10 McFarland dilution in AST. Positive controls contained 4.75 mL AST and 0.25 mL of strain inoculum diluted in AST; negative controls only contained 5 mL of AST. After adding the inoculum into each tube and vortexing, a 150 µL aliquot was taken from each tube at timepoint 0 h. All tubes were then placed in a 37 °C shaker-incubator at 180 rpm. Likewise, for timepoints 2, 4, 8, and 24 h, a 150 µL aliquot was withdrawn at each time for each tube. Each of these aliquots was serially diluted in 1:10 ratio in PBS 1× and 20 µL of the serial dilutions were spread on LB agar plates and incubated O/N at 37 °C. […] grown in LB agar plates were counted. Bacterial concentration (CFU/mL) for each strain, timepoint, and peptide concentration tested was calculated. Bactericidal effect was considered when there was a decrease of at least 3 in log10 (CFU/mL) for each peptide concentration at a given timepoint against each bacterial strain studied. A detection limit of 50 CFU/mL was established, corresponding to 1.70 log10 (CFU/mL), as 20 µL of each direct aliquot sample was spread in LB agar plates. Three replicates were run per peptide and strain.

[1] = tested on: P. aeruginosa ATCC 121110; assay: Time-kill kinetic assay; format: cell-based, Pseudomonas aeruginosa
Experimental: as §1

Compound	effect after 24 h incubation (P. aeruginosa R2; strain R2, 4× MIC)	incubation time to bactericidal effect (decrease of at least 3 log10 CFU/mL) (P. aeruginosa R2; strain R2, 4× MIC)	effect after 24 h incubation (P. aeruginosa R2; strain R2, 8× MIC)	incubation time to bactericidal effect (decrease of at least 3 log10 CFU/mL) (P. aeruginosa R2; strain R2, 8× MIC)	incubation time to 3 log reduction / bactericidal effect ([1]; strain ATCC 121110, 4× MIC)	incubation time to 3 log reduction / bactericidal effect ([1]; strain ATCC 121110, 8× MIC)	incubation time to bactericidal effect (decrease of at least 3 log10 CFU/mL) (P. aeruginosa R2; strain R2, 2× MIC)	effect after 24 h incubation ([1]; strain ATCC 121110, 8× MIC)
CC[C@@H](C)[C@@H](NC(=O)[C@@H](CCCCN)NC(=O)[C@@H](CCCCN)NC(=O)[C@@H](CC(C)C)NC(=O)[C@@H](CCCCN)NC(=O)[C@@H](CCC(=O)O)NC(=O)[C@@H](CCCCN)NC(=O)[C@H](NC(=O)[C@@H](CCCCN)NC(=O)[C@@H](CC(N)=O)NC(=O)[C@@H](CCCNC(=N)N)NC(=O)[C@@H](Cc1ccccc1)NC(=O)[C@@H](CCCCN)NC(=O)[C@@H](CCCNC(=N)N)NC(=O)[C@@H](CC(C)C)NC(=O)[C@@H](CCCNC(=N)N)NC(=O)[C@@H](CCCCN)NC(=O)[C@@H](CCCNC(=N)N)NC(=O)[C@@H](CC(C)C)NC(=O)CN)[C@H](C)CC)C(=O)NCC(=O)N[C@H](CCC(N)=O)C(=O)N[C@H](CCCCN)C(=O)N[C@@H](C(=O)N[C@H](CCC(N)=O)C(=O)NCC(=O)N[C@H](CC(C)C)C(=O)N[C@H](CC(C)C)C(=O)N1CCC[C@@H]1C(=O)N[C@H](CCCCN)C(=O)N[C@H](CC(C)C)C(=O)O)[C@H](C)CC [D-CAP-18_31, Glrkrlrkfrnkikeklkkigqkiqgllpkl] (H-G[dL][dR][dK][dR][dL][dR][dK][dF][dR][dN][dK][dI][dK][dE][dK][dL][dK][dK][dI]G[dQ][dK][dI][dQ]G[dL][dL][dP][dK][dL]-OH)	maintained after 24 h	8 h	maintained after 24 h	4 h	4 h	4 h		
H-GLRKRLRKFRNKIKEKLKKIGQKIQGLLPKL-OH [CAP-18_31]	bacterial regrowth	4 h	maintained the bactericidal effect after 24 h	4 h			8 h	total eradication of the bacterial growth
